Assay results from patent publication US20200339691A1, “PROTEINACEOUS MOLECULES AND USES THEREFOR” (priority 2018, published 2020).
Where a SMILES comes first, the peptide text is derived from it. The star is where a group is joined. Myristoyl = CCCCCCCCCCCCCC(=O)*

Tests used:
[1] = test system: CD44^hiCD24^lo CSCs in MDA-MB-231 cells; experiment: FACS analysis of CD44^hiCD24^lo cancer stem cells in MDA-MB-231 cells treated with P1 analogues; assay type: cell-based, human; settings: 50 μM peptide, 48 hours; for CD44^hiCD24^lo CSCs (%) / COI, Live Single CD44^hiCD24^lo CSCs (Cell Count): n = 1; for Average Inhibition of CSCs (%) / CD44^hiCD24^lo CSCs (%) Repeat 1 / CD44^hiCD24^lo CSCs (%) Repeat 2 / CD44^hiCD24^lo CSCs (%) Repeat 3: n = 3
Protocol: Analogues of P1 (Table 6) were designed and synthesized in accordance with the procedure of Example 5. The ability of these analogues to inhibit cancer stem cells was determined using FACS analysis on MDA-MB-231 cells, which constitutively contain approximately 90% CD44^hiCD24^lo cancer stem cells, treated with the peptides.
(§1) Non-adherent cells were removed during the washing steps.

MDA-MB-231 cells = assay type: cell-based, human; settings: 50 μM peptide, 48 hours, n = 1
Excerpt: as §1
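For COI, Live Single Cells (Cell Count) in this document: live means Hoechst-negative events among single cells.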

| Compound | Inhibition of CSCs (%) Repeat 1 [1] [%] | Inhibition of CSCs (%) Repeat 2 [1] [%] | Inhibition of CSCs (%) Repeat 3 [1] [%] | CD44^hiCD24^lo CSCs (%) [1] [%] | COI, Live Single CD44^hiCD24^lo CSCs (Cell Count) [1] | Average Inhibition of CSCs (%) [1] [%] | CD44^hiCD24^lo CSCs (%) Repeat 1 [1] [%] | CD44^hiCD24^lo CSCs (%) Repeat 2 [1] [%] | CD44^hiCD24^lo CSCs (%) Repeat 3 [1] [%] | COI (Cell Count) (MDA-MB-231 cells) | COI, Live Single Cells (Cell Count) (MDA-MB-231 cells) | COI, Single (Cell Count) (MDA-MB-231 cells) | Total Cell Count (MDA-MB-231 cells) |
| --- | --- | --- | --- | --- | --- | --- | --- | --- | --- | --- | --- | --- | --- |
| CCCCCCCCCCCCCC(=O)N[C@@H](CC(C)C)C(=O)N[C@H](C(=O)N[C@@H](Cc1ccccc1)C(=O)N[C@H](C(=O)N[C@@H](Cc1ccccc1)C(=O)N[C@@H](CCCNC(=N)N)C(=O)N[C@@H](CC(C)C)C(=O)N[C@@H](CCCNC(=N)N)C(=O)N[C@@H](CCCCN)C(=O)NCC(=O)N[C@@H](CCCNC(=N)N)C(=O)N[C@@H](CCCCN)C(=O)N[C@@H](CCSC)C(=O)N[C@@H](CC(=O)O)C(=O)N[C@H](C(=O)N[C@@H](CCCCN)C(=O)N[C@@H](CCCCN)C(N)=O)C(C)C)[C@@H](C)CC)[C@@H](C)O [Peptide 2853833, Myristoyl-LTFIFRLRKGRKMDVKK-NH2] (Myristoyl-LTFIFRLRKGRKMDVKK-NH2) | 70.25 | 75.23 | 85.46 | 12.50 | 9 | 76.98 | 26.67 | 22.22 | 13.04 | 495 | 72 | 363 | 4559 |
| CCCCCCCCCCCCCC(=O)N[C@@H](CC(C)C)C(=O)N[C@H](C(=O)N[C@@H](Cc1ccccc1)C(=O)N[C@H](C(=O)N[C@@H](Cc1ccccc1)C(=O)N[C@@H](CCCNC(=N)N)C(=O)N[C@@H](CC(C)C)C(=O)N[C@@H](CCCNC(=N)N)C(=O)N[C@@H](CCCCN)C(=O)NCC(=O)N[C@@H](CCCNC(=N)N)C(=O)N[C@@H](CCSC)C(=O)N[C@@H](CCC(=O)O)C(=O)N[C@@H](CC(=O)O)C(=O)N[C@H](C(=O)N[C@@H](CCCCN)C(=O)N[C@@H](CCCCN)C(N)=O)C(C)C)[C@@H](C)CC)[C@@H](C)O [Peptide 2853834, Myristoyl-LTFIFRLRKGRMEDVKK-NH2] (Myristoyl-LTFIFRLRKGRMEDVKK-NH2) | 91.98 | 92.08 | 92.04 | 5.76 | 22 | 92.03 | 7.18 | 7.11 | 7.14 | 890 | 382 | 660 | 4207 |
| CCCCCCCCCCCCCC(=O)N[C@@H](CC(C)C)C(=O)N[C@H](C(=O)N[C@@H](Cc1ccccc1)C(=O)N[C@H](C(=O)N[C@@H](Cc1ccccc1)C(=O)N[C@@H](CCCNC(=N)N)C(=O)N[C@@H](CC(C)C)C(=O)N[C@@H](CCCNC(=N)N)C(=O)N[C@@H](CCCCN)C(=O)NCC(=O)N[C@@H](CCCNC(=N)N)C(=O)N[C@@H](CCSC)C(=O)N[C@@H](CCCCN)C(=O)N[C@@H](CC(=O)O)C(=O)N[C@H](C(=O)N[C@@H](CCCCN)C(=O)N[C@@H](CCCCN)C(N)=O)C(C)C)[C@@H](C)CC)[C@@H](C)O [Peptide 2853835, Myristoyl-LTFIFRLRKGRMKDVKK-NH2] (Myristoyl-LTFIFRLRKGRMKDVKK-NH2) | 90.70 | 90.45 | 89.87 | 2.50 | 1 | 90.34 | 8.33 | 8.57 | 9.09 | 1733 | 40 | 1292 | 8580 |
| CCCCCCCCCCCCCC(=O)N[C@@H](CC(C)C)C(=O)N[C@H](C(=O)N[C@@H](Cc1ccccc1)C(=O)N[C@H](C(=O)N[C@@H](Cc1ccccc1)C(=O)N[C@@H](CCCNC(=N)N)C(=O)N[C@@H](CC(C)C)C(=O)N[C@@H](CCCNC(=N)N)C(=O)N[C@@H](CCCCN)C(=O)NCC(=O)N[C@@H](CCCNC(=N)N)C(=O)N[C@@H](CCSC)C(=O)N[C@@H](CCSC)C(=O)N[C@@H](CCCCN)C(=O)N[C@H](C(=O)N[C@@H](CCCCN)C(=O)N[C@@H](CCCCN)C(N)=O)C(C)C)[C@@H](C)CC)[C@@H](C)O [Peptide 2853836, Myristoyl-LTFIFRLRKGRMMKVKK-NH2] (Myristoyl-LTFIFRLRKGRMMKVKK-NH2) | 88.84 | 82.17 | 86.35 | 9.30 | 8 | 85.79 | 10.00 | 16.00 | 12.24 | 761 | 86 | 547 | 5448 |
| CCCCCCCCCCCCCC(=O)N[C@@H](CC(C)C)C(=O)N[C@H](C(=O)N[C@@H](Cc1ccccc1)C(=O)N[C@H](C(=O)N[C@@H](Cc1ccccc1)C(=O)N[C@@H](CCCNC(=N)N)C(=O)N[C@@H](CC(C)C)C(=O)N[C@@H](CCCNC(=N)N)C(=O)N[C@@H](CCCCN)C(=O)NCC(=O)N[C@@H](CCCNC(=N)N)C(=O)N[C@@H](CCSC)C(=O)N[C@@H](CCSC)C(=O)N[C@H](C(=O)N[C@H](C(=O)N[C@@H](CCCCN)C(=O)N[C@@H](CCCCN)C(N)=O)C(C)C)C(C)C)[C@@H](C)CC)[C@@H](C)O [Peptide 2853837, Myristoyl-LTFIFRLRKGRMMVVKK-NH2] (Myristoyl-LTFIFRLRKGRMMVVKK-NH2) | 93.82 | 93.76 | 88.86 | 5.53 | 13 | 92.15 | 5.54 | 5.59 | 10.00 | 452 | 235 | 364 | 4805 |
| CCCCCCCCCCCCCC(=O)N[C@@H](CC(C)C)C(=O)N[C@H](C(=O)N[C@@H](Cc1ccccc1)C(=O)N[C@H](C(=O)N[C@@H](Cc1ccccc1)C(=O)N[C@@H](CCCNC(=N)N)C(=O)N[C@@H](CC(C)C)C(=O)N[C@@H](CCCNC(=N)N)C(=O)N[C@@H](CCCCN)C(=O)NCC(=O)N[C@@H](CCCNC(=N)N)C(=O)N[C@@H](CCSC)C(=O)N[C@@H](CCSC)C(=O)N[C@@H](CC(=O)O)C(=O)N[C@@H](CCC(=O)O)C(=O)N[C@@H](CCCCN)C(=O)N[C@@H](CCCCN)C(N)=O)[C@@H](C)CC)[C@@H](C)O [Peptide 2853838, Myristoyl-LTFIFRLRKGRMMDEKK-NH2] (Myristoyl-LTFIFRLRKGRMMDEKK-NH2) | 86.55 | 81.44 | 86.40 | 10.16 | 31 | 84.80 | 12.05 | 16.65 | 12.20 | 408 | 305 | 333 | 888 |
| CCCCCCCCCCCCCC(=O)N[C@@H](CC(C)C)C(=O)N[C@H](C(=O)N[C@@H](Cc1ccccc1)C(=O)N[C@H](C(=O)N[C@@H](Cc1ccccc1)C(=O)N[C@@H](CCCNC(=N)N)C(=O)N[C@@H](CC(C)C)C(=O)N[C@@H](CCCNC(=N)N)C(=O)N[C@@H](CCCCN)C(=O)NCC(=O)N[C@@H](CCCNC(=N)N)C(=O)N[C@@H](CCSC)C(=O)N[C@@H](CCSC)C(=O)N[C@@H](CC(=O)O)C(=O)N[C@H](C(=O)N[C@@H](CCCNC(=N)N)C(=O)N[C@@H](CCCCN)C(N)=O)C(C)C)[C@@H](C)CC)[C@@H](C)O [Peptide 2853840, Myristoyl-LTFIFRLRKGRMMDVRK-NH2] (Myristoyl-LTFIFRLRKGRMMDVRK-NH2) | 82.01 | 81.08 | 83.80 | 18.83 | 58 | 82.30 | 16.13 | 16.97 | 14.54 | 709 | 308 | 487 | 3715 |
| CCCCCCCCCCCCCC(=O)N[C@@H](CC(C)C)C(=O)N[C@H](C(=O)N[C@@H](Cc1ccccc1)C(=O)N[C@H](C(=O)N[C@@H](Cc1ccccc1)C(=O)N[C@@H](CCCNC(=N)N)C(=O)N[C@@H](CC(C)C)C(=O)N[C@@H](CCCNC(=N)N)C(=O)N[C@@H](CCCCN)C(=O)NCC(=O)N[C@@H](CCCNC(=N)N)C(=O)N[C@@H](CCSC)C(=O)N[C@@H](CCSC)C(=O)N[C@@H](CC(=O)O)C(=O)N[C@H](C(=O)N[C@@H](CCC(=O)O)C(=O)N[C@@H](CCCCN)C(N)=O)C(C)C)[C@@H](C)CC)[C@@H](C)O [Peptide 2853841, Myristoyl-LTFIFRLRKGRMMDVEK-NH2] (Myristoyl-LTFIFRLRKGRMMDVEK-NH2) | 78.06 | 79.59 | 80.30 | 11.40 | 147 | 79.32 | 19.67 | 18.31 | 17.67 | 2072 | 1289 | 1594 | 6480 |
